This passage reports S phase fraction and cell cycle arrest results from patent US20160158245A1, “PHARMACEUTICAL FORMULATION CONTAINING THIENOTRIAZOLODIAZEPINE COMPOUNDS” (ONCOETHIX GmbH, priority 2013, published 2016).

This test relates to ALL and AML cell lines. The test is described as follows: Cell cycle analysis (PI flow cytometry). The class given is cell-based. On the procedure:
For conventional cell-cycle analysis, 1×10^6 cells were harvested, washed in PBS, and fixed in 70% ice cold ethanol. Cells were incubated with 100 μg/mL RNAse (Sigma, Saint-Quentin Fallavier, France) and stained with PI (25 μg/mL, Becton Dickinson) followed by an incubation period of 30 minutes at 37° C. Subsequently, cell-cycle distribution was determined by cytofluorometric analysis. Data were analyzed with the Flowjo (Tree Star Inc., Ashland, USA) flow cytometry software.

With `Cc1sc2c(c1C)C(c1ccc(Cl)cc1)=N[C@@H](CC(=O)Nc1ccc(O)cc1)c1nnc(C)n1-2` [Compound (1-1), 2-[(6S)-4-(4-chlorophenyl)-2,3,9-trimethyl-6H-thienol[3,2-f]-[1,2,4]triazolo[4,3-a][1,4]diazepin-6-yl]-N-(4-hydroxyphenyl)acetamide dihydrate], the S phase fraction entry (48 h, AML and ALL cell lines) is reported as “decreased S phase fraction in almost all cell lines”. For the same compound, for the setting “all cell lines”, the cell cycle arrest result was “induced cell cycle arrest in all cell lines”.
